Experimental data published in US20220175776A1, “COMBINATION OF CHIR99021 AND VALPROIC ACID FOR TREATING HEARING LOSS” (Frequency Therapeutics, Inc., priority 2019, published 2022).
Where two headings read alike, the source gives them in different places.

Assays:
[1] = system: Lgr5+ cochlear cells; test: Lgr5+ Assay (in vitro Lgr5+ cell proliferation assay); assay type: cell-based
[2] = target: EZH2 (Homo sapiens, UniProt O75530+Q15910); conditions: Table 7; includes EED, SAM-competitive and SAH-hydrolase inhibitors; read-out: pKi or IC50 (converted); cited from earlier work
Sequence of EZH2 (Homo sapiens, UniProt O75530+Q15910) (Q15910 whole entry): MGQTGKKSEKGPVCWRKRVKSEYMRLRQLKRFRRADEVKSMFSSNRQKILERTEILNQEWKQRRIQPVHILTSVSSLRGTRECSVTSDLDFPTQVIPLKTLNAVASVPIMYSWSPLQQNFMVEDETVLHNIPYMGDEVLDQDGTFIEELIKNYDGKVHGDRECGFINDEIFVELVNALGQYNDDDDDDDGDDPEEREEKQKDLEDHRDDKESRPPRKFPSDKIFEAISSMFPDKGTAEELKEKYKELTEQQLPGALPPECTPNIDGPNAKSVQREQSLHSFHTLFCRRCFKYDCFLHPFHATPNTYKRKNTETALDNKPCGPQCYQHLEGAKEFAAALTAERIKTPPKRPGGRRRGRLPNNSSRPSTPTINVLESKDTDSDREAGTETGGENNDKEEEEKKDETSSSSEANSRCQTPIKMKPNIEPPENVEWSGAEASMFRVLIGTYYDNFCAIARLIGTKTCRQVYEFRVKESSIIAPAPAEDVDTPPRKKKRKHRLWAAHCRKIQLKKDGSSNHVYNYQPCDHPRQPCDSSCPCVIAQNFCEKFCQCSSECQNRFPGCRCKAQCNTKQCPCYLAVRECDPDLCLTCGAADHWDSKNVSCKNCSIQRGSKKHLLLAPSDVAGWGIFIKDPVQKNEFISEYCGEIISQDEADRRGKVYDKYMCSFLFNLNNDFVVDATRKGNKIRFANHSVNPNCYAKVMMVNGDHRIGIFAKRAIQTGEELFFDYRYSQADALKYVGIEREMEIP
Sequence of EZH2 (Homo sapiens, UniProt O75530+Q15910) (O75530 whole entry): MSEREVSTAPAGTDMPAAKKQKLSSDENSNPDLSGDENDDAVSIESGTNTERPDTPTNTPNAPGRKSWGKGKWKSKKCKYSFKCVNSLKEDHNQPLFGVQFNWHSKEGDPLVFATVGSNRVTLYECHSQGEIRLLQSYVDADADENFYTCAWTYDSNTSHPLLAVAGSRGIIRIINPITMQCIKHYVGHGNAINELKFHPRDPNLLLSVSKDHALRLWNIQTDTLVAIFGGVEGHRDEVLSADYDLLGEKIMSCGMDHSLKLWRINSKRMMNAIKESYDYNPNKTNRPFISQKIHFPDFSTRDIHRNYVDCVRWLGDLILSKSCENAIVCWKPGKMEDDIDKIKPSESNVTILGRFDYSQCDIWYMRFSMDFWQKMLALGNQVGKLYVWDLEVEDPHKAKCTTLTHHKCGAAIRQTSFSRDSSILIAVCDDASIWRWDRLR
Sequence of EZH2 (Homo sapiens, UniProt O75530+Q15910) (Q15022 whole entry partner): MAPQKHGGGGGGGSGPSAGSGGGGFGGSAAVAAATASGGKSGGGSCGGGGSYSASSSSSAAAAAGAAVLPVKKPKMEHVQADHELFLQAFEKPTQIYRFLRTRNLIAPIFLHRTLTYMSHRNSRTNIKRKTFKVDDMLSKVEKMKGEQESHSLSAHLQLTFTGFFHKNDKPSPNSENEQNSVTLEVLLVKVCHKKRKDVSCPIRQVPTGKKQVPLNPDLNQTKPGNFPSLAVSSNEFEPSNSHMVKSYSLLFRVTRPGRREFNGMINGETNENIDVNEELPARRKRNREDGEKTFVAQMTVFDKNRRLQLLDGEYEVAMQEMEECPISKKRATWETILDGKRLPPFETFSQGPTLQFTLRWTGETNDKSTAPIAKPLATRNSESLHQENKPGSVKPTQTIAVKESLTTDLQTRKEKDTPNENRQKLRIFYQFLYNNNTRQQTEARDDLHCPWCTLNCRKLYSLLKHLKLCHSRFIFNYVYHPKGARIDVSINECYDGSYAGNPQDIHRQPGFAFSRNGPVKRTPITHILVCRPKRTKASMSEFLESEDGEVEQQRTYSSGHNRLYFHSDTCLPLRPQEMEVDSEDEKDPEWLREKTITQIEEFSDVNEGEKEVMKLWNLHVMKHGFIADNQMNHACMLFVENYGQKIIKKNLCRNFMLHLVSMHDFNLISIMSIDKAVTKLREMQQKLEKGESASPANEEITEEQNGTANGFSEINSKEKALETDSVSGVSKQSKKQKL
Sequence of EZH2 (Homo sapiens, UniProt O75530+Q15910) (Q09028 whole entry partner): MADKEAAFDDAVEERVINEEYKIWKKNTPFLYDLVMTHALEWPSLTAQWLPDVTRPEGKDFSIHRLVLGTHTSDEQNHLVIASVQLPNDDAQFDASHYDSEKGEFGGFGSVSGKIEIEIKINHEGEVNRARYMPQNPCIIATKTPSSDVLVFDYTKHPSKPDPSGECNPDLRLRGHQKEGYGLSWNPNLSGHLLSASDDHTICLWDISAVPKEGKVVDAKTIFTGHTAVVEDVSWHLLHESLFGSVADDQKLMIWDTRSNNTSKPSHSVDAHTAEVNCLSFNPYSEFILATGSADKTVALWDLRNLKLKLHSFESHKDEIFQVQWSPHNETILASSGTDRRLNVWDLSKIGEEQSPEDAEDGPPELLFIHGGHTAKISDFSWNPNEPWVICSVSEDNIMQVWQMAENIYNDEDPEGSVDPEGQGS

[3] = target: T1, LSD1 (Homo sapiens, UniProt O60341); conditions: Table 6, LSD1; read-out: pKi or IC50 (converted); cited from earlier work
[4] = target: EZH-1 (Homo sapiens, UniProt Q92800); conditions: Table 7, cited from earlier work
Sequence of EZH-1 (Q92800 whole entry): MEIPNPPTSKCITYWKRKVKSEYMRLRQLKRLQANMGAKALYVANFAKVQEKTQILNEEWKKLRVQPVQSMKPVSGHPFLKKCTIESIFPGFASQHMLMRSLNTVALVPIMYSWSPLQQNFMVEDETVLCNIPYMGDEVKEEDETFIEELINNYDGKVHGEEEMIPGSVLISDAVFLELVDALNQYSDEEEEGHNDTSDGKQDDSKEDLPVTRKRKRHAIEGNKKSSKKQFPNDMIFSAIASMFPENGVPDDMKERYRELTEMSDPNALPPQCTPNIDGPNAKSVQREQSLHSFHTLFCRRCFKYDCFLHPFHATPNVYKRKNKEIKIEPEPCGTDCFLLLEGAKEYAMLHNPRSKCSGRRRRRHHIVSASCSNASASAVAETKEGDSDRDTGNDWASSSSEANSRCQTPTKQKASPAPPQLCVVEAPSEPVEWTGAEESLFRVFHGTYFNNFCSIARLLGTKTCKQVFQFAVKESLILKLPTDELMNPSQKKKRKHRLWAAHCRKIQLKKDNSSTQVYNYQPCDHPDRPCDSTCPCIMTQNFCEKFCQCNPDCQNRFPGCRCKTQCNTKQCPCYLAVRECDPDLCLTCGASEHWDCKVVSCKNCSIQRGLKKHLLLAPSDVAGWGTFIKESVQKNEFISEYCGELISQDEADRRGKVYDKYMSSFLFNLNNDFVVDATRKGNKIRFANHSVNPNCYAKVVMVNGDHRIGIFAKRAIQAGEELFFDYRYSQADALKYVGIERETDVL
Sequence of EZH-1 (O75530 whole entry partner): as the sequence (O75530 whole entry) above
Sequence of EZH-1 (Q15022 whole entry partner): as the sequence (Q15022 whole entry partner) above
Sequence of EZH-1 (Q09028 whole entry partner): as the sequence (Q09028 whole entry partner) above

[5] = human, in vivo
Text: Patients underwent physical examination of weight and height, vital signs (body temperature, pulse rate, blood pressure), 12-lead electrocardiogram (ECG), drug screen, clinical laboratory testing (hematology, serum chemistry, urinalysis), urine pregnancy test, and hepatitis B and C antibody tests.

[6] = system: HDAC; conditions: Table 4, HDAC class; cited from earlier work
[7] = Table 6, human; cited from earlier work
[8] = system: MAOs A and B; conditions: Table 6, single value, isoform not stated; read-out: Select MAOs A and B; cited from earlier work
[9] = target: T2, KDM1b (Homo sapiens, UniProt Q8NB78); conditions: Table 6; read-out: Select KDM 1b; cited from earlier work
T2 sequence (Q8NB78 1-822): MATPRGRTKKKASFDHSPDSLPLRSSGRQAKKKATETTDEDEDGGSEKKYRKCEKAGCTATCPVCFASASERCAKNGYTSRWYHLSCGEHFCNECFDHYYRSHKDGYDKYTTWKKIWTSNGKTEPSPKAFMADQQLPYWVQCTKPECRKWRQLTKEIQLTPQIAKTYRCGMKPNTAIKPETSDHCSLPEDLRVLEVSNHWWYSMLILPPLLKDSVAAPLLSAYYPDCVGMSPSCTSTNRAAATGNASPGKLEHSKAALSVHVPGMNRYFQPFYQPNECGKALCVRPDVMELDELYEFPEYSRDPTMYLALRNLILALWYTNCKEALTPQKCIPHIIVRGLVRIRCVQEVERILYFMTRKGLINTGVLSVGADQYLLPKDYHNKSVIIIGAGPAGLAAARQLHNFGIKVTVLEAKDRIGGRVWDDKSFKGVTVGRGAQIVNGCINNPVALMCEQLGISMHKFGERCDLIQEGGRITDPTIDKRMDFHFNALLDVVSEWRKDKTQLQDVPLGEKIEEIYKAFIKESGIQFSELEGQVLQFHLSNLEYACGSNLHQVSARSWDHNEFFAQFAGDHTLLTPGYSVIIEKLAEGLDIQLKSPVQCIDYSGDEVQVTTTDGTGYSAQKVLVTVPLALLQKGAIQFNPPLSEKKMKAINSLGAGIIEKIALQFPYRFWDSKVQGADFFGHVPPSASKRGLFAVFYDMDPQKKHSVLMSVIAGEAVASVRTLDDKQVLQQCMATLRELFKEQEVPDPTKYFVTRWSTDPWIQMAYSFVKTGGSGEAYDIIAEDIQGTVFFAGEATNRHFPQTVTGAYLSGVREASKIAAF

[10] = target: T3, MAO A (Homo sapiens, UniProt P21397); conditions: Table 6; marked A or first value of cell; read-out: Select MAOs A and B: MAO A; cited from earlier work
T3 sequence (P21397 1-527): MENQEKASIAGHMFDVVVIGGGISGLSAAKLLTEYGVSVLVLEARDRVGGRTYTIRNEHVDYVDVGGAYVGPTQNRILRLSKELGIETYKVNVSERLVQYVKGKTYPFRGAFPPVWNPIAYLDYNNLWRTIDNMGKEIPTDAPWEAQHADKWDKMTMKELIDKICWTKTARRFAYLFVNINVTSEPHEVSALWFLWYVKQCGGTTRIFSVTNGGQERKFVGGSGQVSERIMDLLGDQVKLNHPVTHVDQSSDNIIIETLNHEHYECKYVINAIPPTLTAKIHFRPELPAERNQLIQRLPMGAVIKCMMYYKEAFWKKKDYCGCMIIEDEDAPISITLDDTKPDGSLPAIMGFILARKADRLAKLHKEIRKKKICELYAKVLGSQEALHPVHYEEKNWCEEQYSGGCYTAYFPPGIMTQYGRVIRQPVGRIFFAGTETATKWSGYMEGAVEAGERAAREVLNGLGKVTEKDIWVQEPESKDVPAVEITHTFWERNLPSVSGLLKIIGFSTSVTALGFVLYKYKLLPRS

[11] = target: T1, LSD1; conditions: Table 6; cited from earlier work
[12] = system: KDM; conditions: Table 9; cited from earlier work
[13] = target: EZH2 (Homo sapiens, UniProt Q15910); conditions: Table 7; literature, cells not named; cited from earlier work
Sequence of EZH2 (Homo sapiens, UniProt Q15910) (Q15910 whole entry): as the sequence (Q15910 whole entry) above
Sequence of EZH2 (Homo sapiens, UniProt Q15910) (O75530 whole entry partner): as the sequence (O75530 whole entry) above
Sequence of EZH2 (Homo sapiens, UniProt Q15910) (Q15022 whole entry partner): as the sequence (Q15022 whole entry partner) above
Sequence of EZH2 (Homo sapiens, UniProt Q15910) (Q09028 whole entry partner): as the sequence (Q09028 whole entry partner) above

[14] = system: TAZ; conditions: Table 10; literature, cells not named; cited from earlier work
[15] = system: KDM2; conditions: Table 9; read-out: Select KDM2; cited from earlier work
[16] = Perilymph sampling after intratympanic injection, mass spectrometry; assay type: in vivo; conditions: mice, perilymph of 7 animals, within 0.5 hours after intratympanic injection of 10 µL with 87.6 mg/ml NaVPA and 1.39 mg/ml CHIR99021
Description: The effects of CHIR99021 and valproic acid (VPA) on hearing in mice with SNHL were examined. Ten-week-old CBA/CaJ mice were deafened using an established method in which mice were exposed to 8-16 kHz octave band noise for 2 hours at ≥116 dB (Wang et al., 2002). […] Auditory brainstem responses (ABRs) were obtained using tone-burst stimuli for frequencies spanning ˜80% of the cochlea 24 hours after noise administration to establish a baseline for recovery. Animals were dosed once following the 24 hour ABR. Distortion product otoacoustic emissions (DPOAEs) were not routinely analyzed since thresholds after treatment were above DPOAE detection levels. CHIR99021 and VPA were delivered locally by intratympanic injection into the middle ear using a pulled glass pipette, a technique that mimics the standard clinical middle ear injection technique used in humans. The delivery vehicle was adapted from previous work using thermo-reversible poloxamer gels to deliver drugs into the middle ear for diffusion into the cochlea (Salt et al, 2011; Wang et al, 2009). […] Using established techniques (Hirose et al., 2014), perilymph was sampled from 7 animals and analyzed using mass spectrometry to determine entry of CHIR99021 and VPA into the cochlea. Within 0.5 hours, CHIR99021 was detected at 3.5 μM+1.5 μM and VPA was detected at 310.3 μM+51.8 μM. […]

[17] = Table 10, TAZ activators, concentration range
[18] = Table 1, GSK3 inhibitors, concentration range
[19] = Table 7, EZH2 inhibitors, concentration range

## C=CCNc1nc(N)c(C(=O)c2ccc(Cl)s2)s1 [IBS008738]
[1]; [17]
  Lgr5+ Assay: 1.1 to 30 µM

## Nc1ncnc2c1ncn2[C@@H]1O[C@H](C[C@@H](N)CC[C@H](N)C(=O)O)[C@@H](O)[C@H]1O [Sinefungin]
[2]
  IC50: 0.02 µM

## CC(C)=CCC/C(C)=C/CC/C(C)=C/CC/C(C)=C/CO [Geranylgeraniol]
[3]
  IC50: 80 µM

## CCCc1cc(C)[nH]c(=O)c1CNC(=O)c1cc(-c2ccnc(N3CCN(C)CC3)c2)cc2c1cnn2C(C)C [GSK343]
[2]
  IC50: 0.0012 µM
[4]; given as fold
  Select vs EZH-1: 60x

## Cc1c[nH]c(-c2cnc(NCCNc3ccc(C#N)cn3)nc2-c2ccc(Cl)cc2Cl)n1 [CHIR99021]
[1]; [18]
  Lgr5+ Assay: 2 to 6 µM
[5]
  time until cleared from the systemic circulation: ≤ 24 h

## C#CCC(CCCCCC)C(=O)O (stereo not drawn) [2-hexyl-4-pentynoic acid]
[6]
  Class selectivity: Class I

## CCCc1cc(C)[nH]c(=O)c1CNC(=O)c1cc(-c2ccc(N3CCN(C(=O)CCOCCOCCOCCOCCOCCOCCOCCOCCOCCOCCOCCOCCNC(=O)CCCC[C@@H]4SC[C@@H]5NC(=O)N[C@@H]54)CC3)nc2)cc2c1cnn2C(C)C [UNC 2399]
[1]; [19]
  Lgr5+ Assay: 0.1 to 10 µM

## CCc1c(N(CC)C2CCOCC2)cc2oc(C3CCN(C(C)C)CC3)cc2c1C(=O)NCc1c(C)cc(C)[nH]c1=O [EBI-2511]
[2]
  IC50: 0.004 µM

## CN1CCN(C(=O)[C@H](CCCN[C@@H]2C[C@H]2c2ccc(F)cc2)NC(=O)c2ccc(-n3ccnn3)cc2)CC1 [IMG-7289]
[7]
  Human Plasma Conc, Cmax: 63 ng/mL

## Oc1ccc(C=Cc2cc(O)cc(O)c2)cc1 [Resveratrol]
[3]
  IC50: 15 µM

## Thiourea
[8]
  IC50: > 1250 µM

## Cc1coc2c1C(=O)C(=O)c1c-2ccc2c1CC[C@@H](O)[C@]2(C)O [Tanshindiol C]
[2]
  IC50: 0.55 µM

## O=C(O)c1ccc(CN2CCC(CN[C@@H]3C[C@H]3c3ccccc3)CC2)cc1 [GSK-2879552]
[8]
  IC50: 20 µM

## C#CCN(C)Cc1ccccc1 [Pargyline]
[3]
  IC50: 1000 µM

## Cc1cc(C)c(CNC(=O)c2cc(-c3ccc(N4CCN(C)CC4)nc3)cc3c2cnn3C(C)C)c(=O)[nH]1 [GSK926]
[2]
  IC50: 0.0079 µM

## COc1cc(C)[nH]c(=O)c1CNC(=O)c1c(C)n([C@H](C)C2CCOCC2)c2ccccc12 [CPI-360]
[1]; [19]
  Lgr5+ Assay: 0.1 to 10 µM

## N[C@H]1CC[C@H](N[C@@H]2C[C@H]2c2ccccc2)CC1 [ORY-1001]
[1]; Table 6
  Lgr5+ Assay: 0.041 µM
[9]
  IC50: > 100 µM
[10]
  IC50: > 100 µM
[11]
  Literat. Cell: 0.5 to 3 nM

## O=C(O)CCNc1cc(N2CCc3ccccc3CC2)nc(-c2ccccn2)n1 [GSK-J1]
[12]
  Lit Cell: 50 µM

## Nc1nccc2c1ncn2[C@@H]1C=C(CO)[C@@H](O)[C@H]1O [DZNep]
[1]; Table 7, EZH2 inhibitors, result in words
  Lgr5+ Assay: Activity
[13]
  Lit Cell Poten: 1 µM

## CCCc1cc(C)[nH]c(=O)c1CNC(=O)c1cc(-c2ccc(N3CCN(C(C)C)CC3)nc2)cc2c1cnn2C(C)C [UNC1999]
[2]
  IC50: 0.01 µM

## C=CCNc1nc(N)c(C(=O)c2ccc(F)s2)s1 [TT10]
[1]; [17]
  Lgr5+ Assay: 1 to 10 µM
[14]
  Lit Cell: 1 µM

## Cc1cc(C)c(CN2CCc3c(Cl)cc(-c4c(C)noc4C)c(Cl)c3C2=O)c(=O)[nH]1 [PF-06726304]
[2]
  IC50: 0.0011 µM
[13]
  Lit Cell Poten: 0.01 to 0.025 µM

## N[C@@H]1C[C@H]1c1ccccc1 [TCP]
[1]; Table 6, concentration range
  Lgr5+ Assay: 0.1 to 20 µM
[7]
  Human Plasma Conc, Cmax: 30 to 200 ng/mL

## CC(C)=CCC/C(C)=C/CC/C(C)=C/CC/C(C)=C/C(=O)O [geranylgeranoic acid]
[3]
  IC50: 120 µM

## Cc1ccc(C(=O)Nc2c[nH]nc2C(=O)NCCCOC(C)C)cn1 [GSK XXII]
[1]; [18]
  Lgr5+ Assay: 0.2 to 1 µM

## CCCCc1nc2cc(-c3cccnc3)c(C)nc2n1Cc1ccc(-c2ccccc2-c2nn[nH]n2)cc1 [TM-25659]
[1]; [17]
  Lgr5+ Assay: 10 to 100 µM
[14]
  Lit Cell: 10 to 100 µM

## Cc1coc2c1C(=O)C(=O)c1c-2ccc2c1CC[C@H](O)[C@]2(C)O [Tanshindiol B]
[2]
  IC50: 0.52 µM

## O=C(O)CCN(O)C(=O)CCCCCCCCC1CC1 [TC-E 5002]
[15]
  IC50: 6.8 µM

## C/C(=N\NC(=O)c1cccc(S(=O)(=O)N2CCOCC2)c1)c1cc(Cl)ccc1O [SP-2509]
[8]
  IC50: > 300 µM

## N#Cc1ccc2[nH]c(O)c(-c3ccc(CN4CCOCC4)cn3)c2c1 [AZD 1080]
[1]; [18]
  Lgr5+ Assay: 1 to 5 µM

## COc1cc(C)[nH]c(=O)c1CN1CCc2c(Cl)cc([C@H](OC)C3COC3)c(Cl)c2C1=O [PF-06821497]
[2]
  IC50: < 0.001 µM
[4]; given as a concentration
  Select vs EZH-1: 70 nM

## N#Cc1c2c(c3nncn3c1NCc1ccco1)CN(Cc1ccccc1)CC2 [EED162]
[2]
  IC50: 0.03 µM

## CCCC(CCC)C(=O)[O-].[Na+] [Sodium Valproate]
[6]
  Class selectivity: Class I

## CCCC(CCC)C(=O)O [VPA, valproic acid]
[16]
  concentration detected in perilymph: 310.3 µM
[5]
  time to peak plasma concentrations: ≤ 2 h
  time until cleared from the systemic circulation: ≤ 24 h

## CCC(CC)n1ccc2c(C(=O)NCc3c(C)cc(C)[nH]c3=O)cc(C#N)cc21 [Compound E11]
[1]; Table 7, EZH2 inhibitors, concentration
  Lgr5+ Assay: 5 µM
[2]
  IC50: 0.013 µM
[4]; given as fold
  Select vs EZH-1: 90x
[3]
  IC50: 0.243 µM
